This passage reports IC50 results from patent publication US8637496B2, “Compounds having a monogalactosyldiacylglycerol synthase inhibitory activity as herbicide or algaecide, herbicide and algaecide compositions” (Commissariat a l'Energie Atomique, priority 2007, dated 2014).

Structures are written as SMILES. Where a name gives a salt, the structure may show the parent alone.

The assay addresses T1, MGDG synthase in isolated spinach chloroplast envelope membranes (Spinacia oleracea, UniProt Q9SM44).
T1 construct: envelope membranes purified from the lysate by sucrose centrifugation gradient; from tissue; host or cells: envelope membranes of chloroplasts from spinach leaves
T1 sequence (Q9SM44 99-522): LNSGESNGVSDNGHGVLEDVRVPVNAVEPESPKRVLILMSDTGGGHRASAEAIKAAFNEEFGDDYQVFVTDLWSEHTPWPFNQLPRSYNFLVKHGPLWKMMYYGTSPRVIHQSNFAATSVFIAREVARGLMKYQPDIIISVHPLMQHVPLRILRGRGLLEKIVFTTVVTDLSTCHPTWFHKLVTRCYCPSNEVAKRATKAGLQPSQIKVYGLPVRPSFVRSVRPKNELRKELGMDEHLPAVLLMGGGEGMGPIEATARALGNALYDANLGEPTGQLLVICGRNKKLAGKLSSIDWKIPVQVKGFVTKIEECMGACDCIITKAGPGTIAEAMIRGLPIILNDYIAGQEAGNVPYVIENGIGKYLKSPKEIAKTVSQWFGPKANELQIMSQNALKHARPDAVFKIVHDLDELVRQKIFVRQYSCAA
As to the kind of experiment: MGDG synthase activity in envelope membrane fractions isolated from spinach chloroplasts. In kind it is biochemical. Conditions: Table 1, obtained in the same manner as FIG. 4; read-out: Inhibitory effect on MGDG synthesis in isolated spinach chloroplast envelope membranes. The text has this: All the operations have been carried out as described in the article by Maréchal, E. et al., J. Biol. Chem., 1995, 270, 5714-5722. Crude chloroplasts were obtained from 3-4 kg of spinach leaves and purified by isopycnic centrifugation using Percoll gradients. Purified intact chloroplasts have then been lysed in hypotonic medium and envelope membranes purified from the lysate by sucrose centrifugation gradient as described in the article by Douce, R. and Joyard, J., (1982) in Methods in Chloroplast Molecular Biology (Edelman, M., Hallick R and Chua N H eds), pp 239-256, Elsevier Science Publishers B.V. Amsterdam.
MGDG synthase activity was assayed as described in the article by Maréchal et al. (1995).
Regarding `O=C(OCCN(Cc1ccccc1)Cc1ccc(OCc2ccccc2)cc1)N1CCC(n2c(=O)[nH]c3ccccc32)CC1` [Compound 77, 2-(benzyl(4-(benzyloxy)benzyl)amino)ethyl 4-(2-oxo-2,3-dihydro-1H-benzo[d]imidazol-1-yl)piperidine-1-carboxylate], the IC50 worked out at 30 µM.

With `O=C(OCCCN(Cc1ccccc1)Cc1ccc([N+](=O)[O-])cc1)N1CCC(n2c(=O)[nH]c3ccccc32)CC1` [Compound 38, 3-(benzyl(4-nitrobenzyl)amino)propyl 4-(2-oxo-2,3-dihydro-1H-benzo[d]imidazol-1-yl)piperidine-1-carboxylate hydrochloride], the IC50 amounted to 15 µM.

Take `O=C(OCCN(Cc1ccccc1)Cc1cccc(Cl)c1)N1CCC(n2c(=O)[nH]c3ccccc32)CC1` [Compound 50, 2-(benzyl(3-chlorobenzyl)amino)ethyl 4-(2-oxo-2,3-dihydro-1H-benzo[d]imidazol-1-yl)piperidine-1-carboxylate hydrochloride]: the IC50 worked out at 8 µM.

Consider `COc1ccc(CN(CCOC(=O)N2CCC(n3c(=O)[nH]c4ccccc43)CC2)Cc2ccccc2)cc1` [Compound 47, 2-(benzyl(4-methoxybenzyl)amino)ethyl 4-(2-oxo-2,3-dihydro-1H-benzo[d]imidazol-1-yl)piperidine-1-carboxylate hydrochloride], for which the IC50 is 15 µM.

For `C[C@@H](COC(=O)N1CCC(n2c(=O)[nH]c3ccccc32)CC1)N(Cc1ccccc1)Cc1ccnc2ccccc12` [Compound 53, (S)-2-(benzyl(quinolin-4-ylmethyl)amino)propyl 4-(2-oxo-2,3-dihydro-1H-benzo[d]imidazol-1-yl)piperidine-1-carboxylate hydrochloride], the IC50 was 60 µM.

Regarding `Cn1c(CN(CCCOC(=O)N2CCC(n3c(=O)[nH]c4ccccc43)CC2)Cc2ccccc2)cc2ccccc21` [Compound 72, 3-(benzyl((1-methyl-1H-indol-2-yl)methyl)amino)propyl 4-(2-oxo-2,3-dihydro-1H-benzo[d]imidazol-1-yl)piperidine-1-carboxylate hydrochloride], the IC50 amounted to 50 µM.

As to `COc1ccc(CN(CCCOC(=O)N2CCC(n3c(=O)[nH]c4ccccc43)CC2)Cc2ccccc2)cc1` [Compound 42, 3-(benzyl(4-methoxybenzyl)amino)propyl 4-(2-oxo-2,3-dihydro-1H-benzo[d]imidazol-1-yl)piperidine-1-carboxylate hydrochloride], the IC50 is 50 µM.

As to `C[C@@H](COC(=O)N1CCC(n2c(=O)[nH]c3ccccc32)CC1)N(Cc1ccccc1)Cc1ccc([N+](=O)[O-])cc1` [Compound 36, (S)-2-(benzyl(4-nitrobenzyl)amino)propyl 4-(2-oxo-2,3-dihydro-1H-benzo[d]imidazol-1-yl)piperidine-1-carboxylate hydrochloride], the IC50 turned out to be 50 µM.

On to `C[C@@H](COC(=O)N1CCC(n2c(=O)[nH]c3ccccc32)CC1)N(Cc1ccccc1)Cc1ccccn1` [Compound 64, (S)-2-(benzyl(pyridin-2-ylmethyl)amino)propyl 4-(2-oxo-2,3-dihydro-1H-benzo[d]imidazol-1-yl)piperidine-1-carboxylate hydrochloride], for which the IC50 worked out at 35 µM.

Turning to `C[C@@H](COC(=O)N1CCC(n2c(=O)[nH]c3ncccc32)CC1)N(Cc1ccccc1)Cc1ccccc1` [Compound 2, (S)-2-(dibenzylamino)propyl 4-(2,3-dihydro-2-oxoimidazo[4,5-b]pyridin-1-yl)piperidine-1-carboxylate], the IC50 fell in the range of 100 to 500 µM.

On to `O=C(OCCCN(Cc1ccccc1)Cc1ccnc2ccccc12)N1CCC(n2c(=O)[nH]c3ccccc32)CC1` [Compound 71, 3-(benzyl(quinolin-4-ylmethyl)amino)propyl 4-(2-oxo-2,3-dihydro-1H-benzo[d]imidazol-1-yl)piperidine-1-carboxylate hydrochloride], for which the IC50 is 50 µM.

`COc1cccc(CN(CCOC(=O)N2CCC(n3c(=O)[nH]c4ccccc43)CC2)Cc2ccccc2)c1` [Compound 48, 2-(benzyl(3-methoxybenzyl)amino)ethyl 4-(2-oxo-2,3-dihydro-1H-benzo[d]imidazol-1-yl)piperidine-1-carboxylate hydrochloride]: the IC50 came to 15 µM.

For `C[C@@H](COC(=O)N1CCC(n2c(=O)[nH]c3ccccc32)C1)N(Cc1ccccc1)Cc1ccccc1` (stereo partly drawn) [Compound 6, (S)-2-(dibenzylamino)propyl 3-(1,2-dihydro-2-oxobenzo[d]imidazol-3-yl)pyrrolidine-1-carboxylate], the IC50 is 50 µM.

In the case of `COc1ccccc1CN(CCOC(=O)N1CCC(n2c(=O)[nH]c3ccccc32)CC1)Cc1ccccc1` [Compound 75, 2-(benzyl(2-methoxybenzyl)amino)ethyl 4-(2-oxo-2,3-dihydro-1H-benzo[d]imidazol-1-yl)piperidine-1-carboxylate], the IC50 came out at 10 µM.

Regarding `CC(C)C[C@@H](COC(=O)N1CCC(n2c(=O)[nH]c3ccccc32)CC1)N(Cc1ccccc1)C(=O)OC(C)(C)C` [Compound 85, (S)-2-(benzyl(tert-butoxycarbonyl)amino)-4-methylpentyl 4-(2-oxo-2,3-dihydro-1H-benzo[d]imidazol-1-yl)piperidine-1-carboxylate], the IC50 turned out to be 10 µM.

`COc1ccc(CN(Cc2ccccc2)[C@@H](C)COC(=O)N2CCC(n3c(=O)[nH]c4ccccc43)CC2)cc1` [Compound 39, (S)-2-(benzyl(4-methoxybenzyl)amino)propyl 4-(2-oxo-2,3-dihydro-1H-benzo[d]imidazol-1-yl)piperidine-1-carboxylate hydrochloride]: the IC50 amounted to 60 µM.

On to `C[C@@H](COC(=O)N1CCC(n2c(=O)[nH]c3ccccc32)CC1)N(Cc1ccccc1)Cc1ccc(F)cc1` [Compound 51, (S)-2-(benzyl(4-fluorobenzyl)amino)propyl 4-(2-oxo-2,3-dihydro-1H-benzo[d]imidazol-1-yl)piperidine-1-carboxylate hydrochloride], for which the IC50 stood at 40 µM.

Take `COc1cccc(CN(Cc2ccccc2)[C@@H](C)COC(=O)N2CCC(n3c(=O)[nH]c4ccccc43)CC2)c1` [Compound 54, (S)-2-(benzyl(3-methoxybenzyl)amino)propyl 4-(2-oxo-2,3-dihydro-1H-benzo[d]imidazol-1-yl)piperidine-1-carboxylate hydrochloride]: the IC50 came out at 25 µM.

On to `O=C(OCCN(Cc1ccccc1)c1ccccc1)N1CCC(n2c(=O)[nH]c3ccccc32)CC1` [Compound 35, 2-(N-benzyl-N-phenylamino)ethyl 4-(1,2-dihydro-2-oxobenzo[d]imidazol-3-yl)piperidine-1-carboxylate], for which the IC50 is 40 µM.

`O=C(OCCCN(Cc1ccccc1)Cc1cccs1)N1CCC(n2c(=O)[nH]c3ccccc32)CC1` [Compound 66, 3-(benzyl(thiophen-2-ylmethyl)amino)propyl 4-(2-oxo-2,3-dihydro-1H-benzo[d]imidazol-1-yl)piperidine-1-carboxylate hydrochloride]: the IC50 amounted to 50 µM.

On to `C[C@@H](COC(=O)N1CCC(n2c(=O)[nH]c3ccccc32)CC1)N(Cc1ccccc1)Cc1cccc(Oc2ccccc2)c1` [Compound 55, (S)-2-(benzyl(3-phenoxybenzyl)amino)propyl 4-(2-oxo-2,3-dihydro-1H-benzo[d]imidazol-1-yl)piperidine-1-carboxylate hydrochloride], for which the IC50 was determined as 40 µM.
